Results reported in the NIST ThermoML archive (doi:10.1021/acs.jced.8b00879).
Numbers after ± are expanded uncertainties.

Legend:
[1] = 85 kPa, Liquid, Capillary tube (Ostwald / Ubbelohde) method
[2] = mn = molality of the nth substance listed, in mol/kg; conditions: 85 kPa, Liquid, m2 = 0; for viscosity: Capillary tube (Ostwald / Ubbelohde) method

viscosity ([1]; 288.15 K) | viscosity ([1]; 298.15 K) | viscosity ([1]; 308.15 K) | viscosity ([1]; 318.15 K) | viscosity ([2]; 288.15 K) | viscosity ([2]; 298.15 K) | mass density ([2]; 298.15 K, Vibrating tube method) | viscosity ([2]; 308.15 K) | viscosity ([2]; 318.15 K) | SMILES
1.259 ± 0.12 mPa·s | 0.995 ± 0.12 mPa·s | 0.819 ± 0.12 mPa·s | 0.686 ± 0.12 mPa·s |  |  |  |  |  | O [water]
 |  |  |  | 1.259 ± 0.12 mPa·s | 0.995 ± 0.12 mPa·s | 997.38 ± 0.43 kg/m3 | 0.819 ± 0.12 mPa·s | 0.686 ± 0.12 mPa·s | O [water] + C[N+](C)(C)CCO.NCC(=O)[O-]
 |  |  |  | 1.259 ± 0.12 mPa·s | 0.995 ± 0.12 mPa·s |  | 0.819 ± 0.12 mPa·s | 0.686 ± 0.12 mPa·s | O [water] + C[N+](C)(C)CCO.O=C([O-])[C@@H]1CCCN1
